Data taken from article PMC7180948, “New Insights into 4-Anilinoquinazolines as Inhibitors of Cardiac Troponin I–Interacting Kinase (TNNi3K)” (Molecules, 2020).

Tests used:
Test in all cases: biochemical
Design in all cases: KINOMEscan competition binding panel (Eurofins DiscoverX), single concentration, % inhibition
Conditions in all cases: read-out: 7 at 1 µM % inhibition
JNK2 = target: T1, JNK2 (Homo sapiens, UniProt P45984)
T1 construct: gene MAPK9
Method in brief: (§1)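 KINOMEscan binding panel of >400 kinases, run by Eurofins DiscoverX, with compounds tested at a single concentration of 1 µM.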

TBK1 = TBK1 (Homo sapiens, UniProt Q9UHD2)
Method in brief: as §1

PKAC-alpha = target: T2, PKAC-alpha (Homo sapiens, UniProt P17612)
T2 construct: gene PRKACA
Method in brief: as §1

MST1R = MST1R (Homo sapiens, UniProt Q04912)
Method in brief: as §1

MAK = MAK (Homo sapiens, UniProt P20794)
MAK, sequence (P20794 whole entry): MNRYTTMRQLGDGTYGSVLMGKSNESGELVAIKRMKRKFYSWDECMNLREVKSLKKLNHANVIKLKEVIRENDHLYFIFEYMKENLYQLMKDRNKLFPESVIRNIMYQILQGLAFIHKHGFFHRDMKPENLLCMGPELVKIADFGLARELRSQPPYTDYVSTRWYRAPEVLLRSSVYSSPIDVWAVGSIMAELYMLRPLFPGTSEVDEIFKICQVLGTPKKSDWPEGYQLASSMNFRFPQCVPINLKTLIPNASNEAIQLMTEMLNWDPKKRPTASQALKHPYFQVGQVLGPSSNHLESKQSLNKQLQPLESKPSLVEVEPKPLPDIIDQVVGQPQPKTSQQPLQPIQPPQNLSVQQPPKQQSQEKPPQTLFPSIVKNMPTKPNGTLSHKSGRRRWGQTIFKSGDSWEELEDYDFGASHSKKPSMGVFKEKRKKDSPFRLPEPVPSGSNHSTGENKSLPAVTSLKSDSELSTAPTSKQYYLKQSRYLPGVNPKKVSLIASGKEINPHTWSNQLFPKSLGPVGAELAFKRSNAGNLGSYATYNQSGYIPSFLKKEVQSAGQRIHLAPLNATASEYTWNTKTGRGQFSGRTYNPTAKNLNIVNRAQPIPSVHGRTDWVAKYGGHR
Method in brief: as §1

CAMK2B = CAMK2B (Homo sapiens, UniProt Q13554)
Method in brief: as §1

YANK1 = target: T3, YANK1 (Homo sapiens, UniProt Q8WU08)
T3 construct: gene STK32A
T3 sequence (Q8WU08 whole entry): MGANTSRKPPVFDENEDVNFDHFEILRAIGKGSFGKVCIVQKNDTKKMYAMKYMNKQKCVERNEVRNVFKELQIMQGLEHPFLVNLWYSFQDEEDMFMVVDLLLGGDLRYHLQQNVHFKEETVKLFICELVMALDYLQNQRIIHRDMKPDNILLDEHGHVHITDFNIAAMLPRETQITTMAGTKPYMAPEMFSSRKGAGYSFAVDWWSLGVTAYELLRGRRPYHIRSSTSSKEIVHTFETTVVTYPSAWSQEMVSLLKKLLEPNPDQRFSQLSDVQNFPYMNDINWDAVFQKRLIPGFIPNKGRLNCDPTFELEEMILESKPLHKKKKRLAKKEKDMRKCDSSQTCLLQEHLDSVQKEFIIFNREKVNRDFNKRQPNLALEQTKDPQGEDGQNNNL
Method in brief: as §1

FLT3-autoinhibited = FLT3-autoinhibited (Homo sapiens, UniProt P36888)
FLT3-autoinhibited, sequence (P36888 whole entry): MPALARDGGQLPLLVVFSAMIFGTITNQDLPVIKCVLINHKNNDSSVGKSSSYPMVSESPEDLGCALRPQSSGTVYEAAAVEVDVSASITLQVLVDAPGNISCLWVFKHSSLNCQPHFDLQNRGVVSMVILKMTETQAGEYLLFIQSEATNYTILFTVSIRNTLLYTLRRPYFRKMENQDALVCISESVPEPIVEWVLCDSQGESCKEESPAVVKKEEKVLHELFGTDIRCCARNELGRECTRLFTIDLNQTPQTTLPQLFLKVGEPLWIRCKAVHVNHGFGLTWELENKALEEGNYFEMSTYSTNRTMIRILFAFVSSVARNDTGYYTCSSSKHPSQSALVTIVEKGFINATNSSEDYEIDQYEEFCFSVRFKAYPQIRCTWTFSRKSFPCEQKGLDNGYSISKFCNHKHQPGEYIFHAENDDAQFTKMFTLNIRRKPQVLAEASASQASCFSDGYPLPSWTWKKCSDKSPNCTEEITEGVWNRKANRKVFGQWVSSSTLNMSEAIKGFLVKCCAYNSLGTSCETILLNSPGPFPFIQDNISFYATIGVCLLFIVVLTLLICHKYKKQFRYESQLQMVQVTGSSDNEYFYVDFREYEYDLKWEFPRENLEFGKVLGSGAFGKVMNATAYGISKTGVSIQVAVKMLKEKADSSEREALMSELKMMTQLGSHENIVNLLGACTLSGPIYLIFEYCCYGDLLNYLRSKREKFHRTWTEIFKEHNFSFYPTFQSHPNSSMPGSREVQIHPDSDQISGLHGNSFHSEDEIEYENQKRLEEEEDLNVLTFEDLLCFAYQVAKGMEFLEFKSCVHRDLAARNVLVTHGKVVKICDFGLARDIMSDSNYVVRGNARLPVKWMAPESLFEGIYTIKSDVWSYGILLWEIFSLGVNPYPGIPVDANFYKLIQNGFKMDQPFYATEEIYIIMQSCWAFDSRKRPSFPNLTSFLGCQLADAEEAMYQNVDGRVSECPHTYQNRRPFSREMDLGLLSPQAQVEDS
Method in brief: as §1

PRKCE = PRKCE (Homo sapiens, UniProt Q02156)
PRKCE, sequence (Q02156 whole entry): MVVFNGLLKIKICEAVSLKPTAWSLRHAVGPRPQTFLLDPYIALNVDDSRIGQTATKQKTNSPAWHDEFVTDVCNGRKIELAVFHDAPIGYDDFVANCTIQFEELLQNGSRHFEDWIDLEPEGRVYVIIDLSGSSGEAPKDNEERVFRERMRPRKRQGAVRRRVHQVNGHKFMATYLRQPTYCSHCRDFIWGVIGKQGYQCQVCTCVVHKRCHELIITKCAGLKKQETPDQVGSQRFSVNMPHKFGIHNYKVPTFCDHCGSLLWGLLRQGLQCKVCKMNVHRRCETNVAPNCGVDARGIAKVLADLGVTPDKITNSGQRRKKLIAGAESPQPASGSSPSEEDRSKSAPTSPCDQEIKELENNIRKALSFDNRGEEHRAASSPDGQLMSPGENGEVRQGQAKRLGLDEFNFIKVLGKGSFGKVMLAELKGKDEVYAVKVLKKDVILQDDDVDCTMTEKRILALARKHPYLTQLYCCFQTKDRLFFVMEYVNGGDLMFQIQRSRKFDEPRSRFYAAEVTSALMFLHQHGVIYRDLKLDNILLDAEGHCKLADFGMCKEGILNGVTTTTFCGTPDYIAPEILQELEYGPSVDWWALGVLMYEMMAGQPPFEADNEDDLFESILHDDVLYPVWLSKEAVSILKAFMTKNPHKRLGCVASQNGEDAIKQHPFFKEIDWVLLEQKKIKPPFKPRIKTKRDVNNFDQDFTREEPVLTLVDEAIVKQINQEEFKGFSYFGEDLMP
Method in brief: as §1

ERK4 = target: T4, ERK4 (Homo sapiens, UniProt P31152)
T4 construct: gene MAPK4
Method in brief: as §1

PKN1 = PKN1 (Homo sapiens, UniProt Q16512)
Method in brief: as §1

TGFBR1 = TGFBR1 (Homo sapiens, UniProt P36897)
Method in brief: as §1

PIM1 = PIM1 (Homo sapiens, UniProt P11309)
PIM1, sequence (P11309 whole entry): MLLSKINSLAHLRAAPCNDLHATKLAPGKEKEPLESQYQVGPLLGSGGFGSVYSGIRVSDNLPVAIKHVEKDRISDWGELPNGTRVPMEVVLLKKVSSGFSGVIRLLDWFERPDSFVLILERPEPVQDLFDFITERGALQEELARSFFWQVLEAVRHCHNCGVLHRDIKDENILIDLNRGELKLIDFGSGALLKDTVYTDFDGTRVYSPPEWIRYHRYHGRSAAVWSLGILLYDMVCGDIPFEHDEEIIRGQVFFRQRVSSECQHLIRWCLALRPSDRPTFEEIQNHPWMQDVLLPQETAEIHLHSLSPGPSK
Method in brief: as §1

DMPK2 = target: T5, DMPK2 (Homo sapiens, UniProt Q6DT37)
T5 construct: gene CDC42BPG
Method in brief: as §1

PKN2 = PKN2 (Homo sapiens, UniProt Q16513)
Method in brief: as §1

TNNI3K = TNNI3K (Homo sapiens, UniProt Q59H18)
TNNI3K, sequence (Q59H18 whole entry): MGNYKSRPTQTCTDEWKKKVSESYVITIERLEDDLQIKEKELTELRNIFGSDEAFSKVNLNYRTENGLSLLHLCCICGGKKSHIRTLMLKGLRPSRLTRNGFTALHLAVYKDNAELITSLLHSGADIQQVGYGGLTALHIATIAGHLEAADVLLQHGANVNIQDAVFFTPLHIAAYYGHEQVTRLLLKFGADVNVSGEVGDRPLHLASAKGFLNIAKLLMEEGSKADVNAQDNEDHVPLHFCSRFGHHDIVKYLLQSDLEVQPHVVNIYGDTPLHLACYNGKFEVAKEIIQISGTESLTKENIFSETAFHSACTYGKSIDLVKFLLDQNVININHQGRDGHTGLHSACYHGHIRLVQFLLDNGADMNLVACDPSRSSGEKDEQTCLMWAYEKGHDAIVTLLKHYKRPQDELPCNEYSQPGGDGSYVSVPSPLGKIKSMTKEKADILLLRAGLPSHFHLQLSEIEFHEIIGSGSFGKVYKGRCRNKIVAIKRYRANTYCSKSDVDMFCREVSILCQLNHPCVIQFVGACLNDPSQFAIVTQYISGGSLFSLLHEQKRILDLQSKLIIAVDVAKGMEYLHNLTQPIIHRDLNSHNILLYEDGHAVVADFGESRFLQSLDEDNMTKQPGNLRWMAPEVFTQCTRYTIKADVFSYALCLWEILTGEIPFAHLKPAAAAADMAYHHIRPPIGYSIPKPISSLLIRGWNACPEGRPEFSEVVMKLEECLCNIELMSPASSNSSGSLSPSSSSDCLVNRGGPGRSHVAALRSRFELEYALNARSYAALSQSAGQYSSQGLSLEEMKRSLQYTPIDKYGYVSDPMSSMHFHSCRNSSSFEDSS
Method in brief: as §1

TRKA = target: T6, TRKA (Homo sapiens, UniProt P04629)
T6 construct: gene NTRK1
Method in brief: as §1

NEK9 = NEK9 (Homo sapiens, UniProt Q8TD19)
Method in brief: as §1

YSK1 = target: T7, YSK1 (Homo sapiens, UniProt O00506)
T7 construct: gene STK25
Method in brief: as §1

IKK-epsilon = target: T8, IKK-epsilon (Homo sapiens, UniProt Q14164)
T8 construct: gene IKBKE
Method in brief: as §1

NDR2 = target: T9, NDR2 (Homo sapiens, UniProt Q9Y2H1)
T9 construct: gene STK38L
T9 sequence (Q9Y2H1 whole entry): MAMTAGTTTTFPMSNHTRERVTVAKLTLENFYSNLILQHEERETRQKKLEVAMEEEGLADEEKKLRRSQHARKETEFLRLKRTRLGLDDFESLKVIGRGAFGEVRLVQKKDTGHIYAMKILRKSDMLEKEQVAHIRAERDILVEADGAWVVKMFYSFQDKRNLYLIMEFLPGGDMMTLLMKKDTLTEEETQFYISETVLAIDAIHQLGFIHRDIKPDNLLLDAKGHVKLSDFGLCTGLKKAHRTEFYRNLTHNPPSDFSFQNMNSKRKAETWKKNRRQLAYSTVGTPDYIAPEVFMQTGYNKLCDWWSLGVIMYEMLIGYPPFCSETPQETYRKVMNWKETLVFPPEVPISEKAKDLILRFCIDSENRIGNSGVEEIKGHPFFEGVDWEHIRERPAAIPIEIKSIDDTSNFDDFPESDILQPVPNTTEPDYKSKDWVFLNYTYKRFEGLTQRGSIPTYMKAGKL
Method in brief: as §1

LATS1 = LATS1 (Homo sapiens, UniProt O95835)
Method in brief: as §1

MYO3B = MYO3B (Homo sapiens, UniProt Q8WXR4)
Method in brief: as §1

[1] = target: T10, JAK1(JH2domain-pseudokinase) (Homo sapiens, UniProt P23458)
T10 construct: JH2domain-pseudokinase
Method in brief: as §1

T1 sequence (P45984 whole entry): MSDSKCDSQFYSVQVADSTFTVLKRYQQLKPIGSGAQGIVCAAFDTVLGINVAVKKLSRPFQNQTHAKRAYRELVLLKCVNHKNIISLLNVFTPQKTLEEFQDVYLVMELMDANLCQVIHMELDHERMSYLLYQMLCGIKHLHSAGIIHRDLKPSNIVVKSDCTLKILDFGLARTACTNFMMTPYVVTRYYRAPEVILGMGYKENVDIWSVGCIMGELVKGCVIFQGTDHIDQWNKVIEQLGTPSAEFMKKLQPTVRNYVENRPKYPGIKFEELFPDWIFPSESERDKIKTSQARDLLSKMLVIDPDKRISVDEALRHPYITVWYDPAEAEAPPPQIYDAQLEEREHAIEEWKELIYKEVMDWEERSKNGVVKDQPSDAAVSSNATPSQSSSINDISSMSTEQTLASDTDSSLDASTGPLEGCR

CNS(=O)(=O)c1ccc(N(C)C)c(Nc2ncnc3cc(OC)c(OC)cc23)c1 [compound 7, 3-((6,7-dimethoxyquinazolin-4-yl)amino)-4-(dimethylamino)-N-methylbenzenesulfonamide]
inhibition at 1 µM (JNK2): 0%
inhibition at 1 µM (TBK1): 0%
inhibition at 1 µM (PKAC-alpha): 6%
inhibition at 1 µM (MST1R): 3%
inhibition at 1 µM (MAK): 0%
inhibition at 1 µM (CAMK2B): 11%
inhibition at 1 µM (YANK1): 17%
inhibition at 1 µM (FLT3-autoinhibited): 12%
inhibition at 1 µM (PRKCE): 0%
inhibition at 1 µM (ERK4): 0%
inhibition at 1 µM (PKN1): 0%
inhibition at 1 µM (TGFBR1): 0%
inhibition at 1 µM (PIM1): 0%
inhibition at 1 µM (DMPK2): 0%
inhibition at 1 µM (PKN2): 11%
inhibition at 1 µM (TNNI3K): 62%
inhibition at 1 µM (TRKA): 22%
inhibition at 1 µM (NEK9): 0%
inhibition at 1 µM (YSK1): 5%
inhibition at 1 µM (IKK-epsilon): 18%
inhibition at 1 µM (NDR2): 9%
inhibition at 1 µM (LATS1): 0%
inhibition at 1 µM (MYO3B): 0%
inhibition at 1 µM [1]: 20%
